From patent US7960376B2, “Benzo-fused heterocycles” (priority 2007, dated 2011) come the findings set out here.

Test [1] deals with T1, rat CB2 receptor (rCB2) (Rattus norvegicus, UniProt Q9QZN9).
T1 sequence (Q9QZN9 1-360): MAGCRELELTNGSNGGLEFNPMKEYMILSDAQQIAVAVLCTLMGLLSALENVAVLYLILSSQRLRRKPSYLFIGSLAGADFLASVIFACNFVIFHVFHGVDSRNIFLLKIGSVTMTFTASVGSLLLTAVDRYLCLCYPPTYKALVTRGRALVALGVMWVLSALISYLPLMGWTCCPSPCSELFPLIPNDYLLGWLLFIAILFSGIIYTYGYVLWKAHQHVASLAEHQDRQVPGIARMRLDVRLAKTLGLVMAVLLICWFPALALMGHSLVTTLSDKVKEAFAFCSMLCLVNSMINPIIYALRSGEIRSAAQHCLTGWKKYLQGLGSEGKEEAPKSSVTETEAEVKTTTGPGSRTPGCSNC
Nature of the test: cell-based. Conditions: intracellular cAMP, CHO-K1 cells, NKH-477 prestimulated; + agonist, − inverse agonist. The format is cell-based.

The target of test [2] is human CB2 receptor (hCB2) (Homo sapiens, UniProt P34972). Nature of the test: cell-based. As to conditions: intracellular cAMP, CHO-K1 cells, NKH-477 prestimulated; + agonist, − inverse agonist. In kind it is cell-based.
Sequence of human CB2 receptor (hCB2) (P34972 whole entry): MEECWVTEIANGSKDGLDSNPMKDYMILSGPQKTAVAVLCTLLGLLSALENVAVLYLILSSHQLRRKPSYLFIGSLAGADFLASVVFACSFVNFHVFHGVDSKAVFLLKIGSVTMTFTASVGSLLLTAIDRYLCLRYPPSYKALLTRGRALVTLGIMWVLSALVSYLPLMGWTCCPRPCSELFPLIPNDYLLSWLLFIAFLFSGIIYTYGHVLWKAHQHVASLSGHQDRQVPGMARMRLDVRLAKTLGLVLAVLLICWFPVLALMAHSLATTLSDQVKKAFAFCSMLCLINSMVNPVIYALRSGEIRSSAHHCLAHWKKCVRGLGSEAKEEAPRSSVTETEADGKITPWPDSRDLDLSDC

`CC(C)(C)NC(=O)c1ccc2c(c1)N(C(=O)c1ccccc1)CCS2` [Example 9, 4-benzoyl-N-tert-butyl-3,4-dihydro-2H-benzo[b][1,4]thiazine-6-carboxamide]: the “rCB2 EC50 range” value in test [1] is “−D”.
As for `CC(C)(C)NC(=O)c1ccc2c(c1)N(C(=O)c1ccc(Cl)cc1)CCS2` [Example 10, N-tert-butyl-4-(4-chlorobenzoyl)-3,4-dihydro-2H-benzo[b][1,4]thiazine-6-carboxamide], the “rCB2 EC50 range” value in test [1] is “+D”. Further, the “hCB2 EC50 range” value in test [2] is reported as “+D”.
As for `COc1ccc(C(=O)N2CCSc3ccc(C(=O)NC4CCCC4)cc32)cc1` [Example 11, N-cyclopentyl-4-(4-methoxybenzoyl)-3,4-dihydro-2H-benzo[b] [1,4]thiazine-6-carboxamide], the “rCB2 EC50 range” value in test [1] is on record as “−D”. For the same compound, the “hCB2 EC50 range” value in test [2] is recorded as “−E”.
As to `O=C(NC1CCCC1)c1ccc2c(c1)N(C(=O)c1ccc(Cl)cc1)CCS2` [Example 15, N-cyclopentyl-4-(4-chlorobenzoyl)-3,4-dihydro-2H-benzo[b] [1,4]thiazine-6-carboxamide], the “rCB2 EC50 range” value in test [1] is “−E”.
As for `COCCCNC(=O)c1ccc2c(c1)N(C(=O)c1ccccc1)CCS2` [Example 16, 4-benzoyl-N-(3-methoxypropyl)-3,4-dihydro-2H-benzo[b][1,4]thiazine-6-carboxamide], the “rCB2 EC50 range” value in test [1] was “−D”. For the same compound, in test [2], the “hCB2 EC50 range” value is “−E”.
Turning to `COCCCNC(=O)c1ccc2c(c1)N(C(=O)c1ccc(F)cc1)CCS2` [Example 17], the “rCB2 EC50 range” value in test [1] was “−E”.
With `COCCCNC(=O)c1ccc2c(c1)N(C(=O)c1ccc(C)cc1)CCS2` [Example 18, N-(3-methoxypropyl)-4-(4-methylbenzoyl)-3,4-dihydro-2H-benzo[b][1,4]thiazine-6-carboxamide], the “rCB2 EC50 range” value in test [1] was “−E”. Besides, the “hCB2 EC50 range” value in test [2] was “−E”.
For `COCCCNC(=O)c1ccc2c(c1)N(C(=O)c1ccc(Cl)cc1)CCS2` [Example 19], the “rCB2 EC50 range” value in test [1] was “−E”. In addition, the “hCB2 EC50 range” value in test [2] is on record as “−E”.
In the case of `COCCCNC(=O)c1ccc2c(c1)N(C(=O)c1ccc(OC)cc1)CCS2` [Example 20], in test [2], the “hCB2 EC50 range” value was “−E”.
For the compound `CC(C)NC(=O)c1ccc2c(c1)N(C(=O)c1ccccc1)CCS2` [Example 26, 4-benzoyl-N-isopropyl-3,4-dihydro-2H-benzo[b][1,4]thiazine-6-carboxamide], the “rCB2 EC50 range” value in test [1] is given as “−E”.
In the case of `CC(C)NC(=O)c1ccc2c(c1)N(C(=O)c1ccc(F)cc1)CCS2` [Example 27], the “rCB2 EC50 range” value in test [1] is “+D”. Also, the “hCB2 EC50 range” value in test [2] is listed as “+E”.
Taken in the same sequence, the figures for `CC(C)NC(=O)c1ccc2c(c1)N(C(=O)c1ccc(Cl)cc1)CCS2` [Example 29] were “+D” and “+D”.
Taken in the same sequence, the figures for `COc1ccc(C(=O)N2CCSc3ccc(C(=O)NC(C)C)cc32)cc1` [Example 30, N-isopropyl-4-(4-methoxybenzoyl)-3,4-dihydro-2H-benzo[b][1,4]thiazine-6-carboxamide] were “−E” and “−E”.
For the compound `CC(=O)N1CCSc2ccc(C(=O)NC(C)(C)C)cc21` [Example 32, 4-acetyl-N-tert-butyl-3,4-dihydro-2H-benzo[b][1,4]thiazine-6-carboxamide], the “rCB2 EC50 range” value in test [1] is “−E”.
On to `CCC(=O)N1CCSc2ccc(C(=O)NC(C)(C)C)cc21` [Example 33, N-tert-butyl-4-propionyl-3,4-dihydro-2H-benzo[b][1,4]thiazine-6-carboxamide], for which the “hCB2 EC50 range” value in test [2] is on record as “+D”.
For `CC(C)C(=O)N1CCSc2ccc(C(=O)NC(C)(C)C)cc21` [Example 34, N-tert-butyl-4-isobutyryl-3,4-dihydro-2H-benzo[b][1,4]thiazine-6-carboxamide], the “rCB2 EC50 range” value in test [1] is reported as “+D”. Further, the “hCB2 EC50 range” value in test [2] was “+D”.
Regarding `CC(=O)N1CCSc2ccc(C(=O)NC3CCCC3)cc21` [Example 35, 4-acetyl-N-cyclopentyl-3,4-dihydro-2H-benzo[b][1,4]thiazine-6-carboxamide], in test [1], the “rCB2 EC50 range” value was “−E”. Besides, the “hCB2 EC50 range” value in test [2] is reported as “+E”.
For `CCC(=O)N1CCSc2ccc(C(=O)NC3CCCC3)cc21` [Example 36, N-cyclopentyl-4-propionyl-3,4-dihydro-2H-benzo[b][1,4]thiazine-6-carboxamide], in that order: “−E” and “+E”.
Taken in the same sequence, the figures for `CC(C)C(=O)N1CCSc2ccc(C(=O)NC3CCCC3)cc21` [Example 37, N-cyclopentyl-4-isobutyryl-3,4-dihydro-2H-benzo[b][1,4]thiazine-6-carboxamide] were “−E” and “+E”.
As to `COCCCNC(=O)c1ccc2c(c1)N(C(=O)C(C)C)CCS2` [Example 38, 4-isobutyryl-N-(3-methoxypropyl)-3,4-dihydro-2H-benzo[b][1,4]thiazine-6-carboxamide], the “rCB2 EC50 range” value in test [1] is listed as “−E”.
For `CC(C)CNC(=O)c1ccc2c(c1)N(S(=O)(=O)c1ccccc1)CCS2` [Example 41, N-isobutyl-4-(phenylsulfonyl)-3,4-dihydro-2H-benzo-[b][1,4]thiazine-6-carboxamide], the “rCB2 EC50 range” value in test [1] is “+A”. Also, the “hCB2 EC50 range” value in test [2] is reported as “+C”.
Taken in the same sequence, the figures for `O=C(NC1CCCC1)c1ccc2c(c1)N(S(=O)(=O)c1ccccc1)CCS2` [Example 44, N-cyclopentyl-4-(phenylsulfonyl)-3,4-dihydro-2H-benzo[b][1,4]thiazine-6-carboxamide] were “+B” and “+C”.
Taken in the same sequence, the figures for `CC(C)(C)NC(=O)c1ccc2c(c1)N(S(=O)(=O)c1ccccc1)CCS2` [Example 46, N-tert-butyl-4-(phenylsulfonyl)-3,4-dihydro-2H-benzo[b][1,4]thiazine-6-carboxamide] were “+B” and “+B”.
On to `COCCCNC(=O)c1ccc2c(c1)N(S(=O)(=O)c1ccccc1)CCS2` [Example 48, N-(3-methoxypropyl)-4-(phenylsulfonyl)-3,4-dihydro-2H-benzo[b][1,4]thiazine-6-carboxamide], for which, in test [1], the “rCB2 EC50 range” value is “+B”. Further, in test [2], the “hCB2 EC50 range” value was “+D”.
Taken in the same sequence, the figures for `CC(C)NC(=O)c1ccc2c(c1)N(S(=O)(=O)c1ccccc1)CCS2` [Example 52, N-isopropyl-4-(phenylsulfonyl)-3,4-dihydro-2H-benzo[b][1,4]thiazine-6-carboxamide] were “+A” and “+C”.
Taken in the same sequence, the figures for `CC(C)(C)NC(=O)c1ccc2c(c1)N(S(C)(=O)=O)CCS2` [Example 53, N-tert-butyl-4-(methylsulfonyl)-3,4-dihydro-2H-benzo[b][1,4]thiazine-6-carboxamide] were “+D” and “+E”.
Taken in the same sequence, the figures for `CC(C)CNC(=O)c1ccc2c(c1)N(S(C)(=O)=O)CCS2` [Example 54, N-isobutyl-4-(methylsulfonyl)-3,4-dihydro-2H-benzo[b][1,4]thiazine-6-carboxamide] were “+D” and “+E”.
For the compound `CS(=O)(=O)N1CCSc2ccc(C(=O)NC3CCCC3)cc21` [Example 55, N-cyclopentyl-4-(methylsulfonyl)-3,4-dihydro-2H-benzo[b][1,4]thiazine-6-carboxamide], in test [1], the “rCB2 EC50 range” value is given as “+D”. The “hCB2 EC50 range” value in test [2] is recorded as “+E”.
Regarding `COCCCNC(=O)c1ccc2c(c1)N(S(C)(=O)=O)CCS2` [Example 56, N-(3-methoxypropyl)-4-(methylsulfonyl)-3,4-dihydro-2H-benzo[b][1,4]thiazine-6-carboxamide], in test [1], the “rCB2 EC50 range” value is given as “+E”.
For the compound `CC(C)NC(=O)c1ccc2c(c1)N(S(C)(=O)=O)CCS2` [Example 57, N-isopropyl-4-(methylsulfonyl)-3,4-dihydro-2H-benzo[b][1,4]thiazine-6-carboxamide], the “rCB2 EC50 range” value in test [1] is reported as “+D”. Further, the “hCB2 EC50 range” value in test [2] is “+E”.
For the compound `CC(C)CNC(=O)c1ccc2c(c1)N(S(=O)(=O)c1ccccc1)CCO2` [Example 59, N-isobutyl-4-(phenylsulfonyl)-3,4-dihydro-2H-benzo [b][1,4]oxazine-6-carboxamide], in test [1], the “rCB2 EC50 range” value is reported as “+C”. Besides, the “hCB2 EC50 range” value in test [2] was “+C”.
`CCN(CC)C(=O)c1ccc2c(c1)N(S(=O)(=O)c1ccccc1)CCS2` [Example 65, N,N-diethyl-4-(phenylsulfonyl)-3,4-dihydro-2H-benzo[b][1,4]thiazine-6-carboxamide]: in test [1], the “rCB2 EC50 range” value is given as “+C”. The “hCB2 EC50 range” value in test [2] is recorded as “+C”.
As to `O=C(c1ccc2c(c1)N(S(=O)(=O)c1ccc(C(F)(F)F)cc1)CCS2)N1CCCCC1` [Example 75, piperidin-1-yl(4-(4-(trifluoromethyl)phenylsulfonyl)-3,4-dihydro-2H-benzo[b][1,4]thiazin-6-yl)methanone], the “rCB2 EC50 range” value in test [1] is given as “−C”.
For the compound `O=S(=O)(c1ccc(C(F)(F)F)cc1)N1CCSc2ccc(-c3nc(-c4cccc(C(F)(F)F)c4)no3)cc21` [Example 80, 3-(3-(trifluoromethyl)phenyl)-5-(4-(4-(trifluoromethyl)phenylsulfonyl)-3,4-dihydro-2H-benzo[b][1,4]thiazin-6-yl)-1,2,4-oxadiazole], the “hCB2 EC50 range” value in test [2] is given as “+D”.
In the case of `CC1(C)CCN(S(=O)(=O)c2ccc(F)cc2)c2cc(C(=O)N3CCCC3)ccc2S1` [Example 102, (5-(4-fluorophenyl-sulfonyl)-2,2-dimethyl-2,3,4,5-tetrahydro-benzo[b][1,4]thiazepin-7-yl)(pyrrolidin-1-yl)-methanone], the “rCB2 EC50 range” value in test [1] is reported as “+C”.
